Results taken from patent US20240209022A1, “NOVEL PEPTIDE HAVING ANTI-INFLAMMATORY AND TISSUE REGENERATIVE ACTIONS” (KOREA RESEARCH INSTITUTE OF BIOSCIENCE AND BIOTECHNOLOGY, priority 2020, published 2024).

B1: Amuc_1409: SEQ ID NO: 15, functional fragment obtained by eliminating the leader sequence from SEQ ID NO: 14; protein derived from Akkermansia muciniphila (protein)
chain: IPESSVPAAAVSSIKGAYPNAGPIEWDSEMHGMERIYEAEFRINGFQFDVKIAPDGKIVRIKEEIAASSLPEAVRASVLKRYPGCRIKEAEKITEGELVRYKVEVADSRDDYDVLIAPDGNILHVDR
modifications: Amuc_1409_fragment
notes: protein derived from Akkermansia muciniphila

What was measured:
[1] = test system: small intestine organoid; assay: Small intestine organoid sprouting; type: cell-based, C57BL/6J mice; conditions: 16 nM on days 0, 2, 4; day 5 of culture; vs PBS buffer
Method: In order to establish a small intestine organoid model, the small intestine of 15-week-old male C57BL/6J mice was cut longitudinally from the proximal end to the distal end, and cut transversely into about 5 mm long pieces. The small intestine tissue thus obtained was washed with refrigerated PBS containing 1% penicillin. Thereafter, the washed small intestine tissue was treated with dissociation buffer and filtered through a cell strainer to isolate crypts. The isolated crypt was cultured in Matrigel and Organoid Growth Medium (Intesticult™) mixed at a ratio of 1:1, Matrigel was solidified at 37° C. for 20 minutes in a 12 well plate, and then medium (500 μL/well) was added. The medium was replaced after 4 days, and subculture was performed on day 7.
For novel peptide screening, organoids 3D cultured in medium and Matrigel support were dispensed into 3 wells per group using a 12-well plate and 50 organoids per well. On days 0, 2, and 4 of culture, the organoids were treated with novel tetrapeptides PEP006, PEP007, PEP008, PEP009, and PEP010 and novel tripeptides PEP011, PEP012, and PEP013 at a concentration of 16 nM as described above, and the number of lobes of sprouted organoids on day 5 of culture was examined and analyzed for comparison. The control group was treated with PBS buffer in the same manner.

[2] = test system: animal model of muscle atrophy/muscle strength loss due to natural aging (geriatric sarcopenia); assay: Geriatric sarcopenia model (natural aging): muscle strength and muscle mass; type: in vivo, C57BL/6 mice; conditions: vs PBS buffer group; for grip strength: 11th week of administration, oral 0.2 μg/150 μL; for GC (gastrocnemius) muscle weight / TA (tibialis anterior) muscle weight / soleus muscle weight: after the experiment; for muscle strength (grip strength): oral
Method: The efficacy of the peptides was verified using an animal model of muscle atrophy/muscle strength loss due to natural aging (geriatric sarcopenia). At the time of administration of Amuc_1409, 80 to 83-week old C57BL/6 male mice were used. Amuc_1409 was dissolved in PBS buffer at a concentration of 2.4 μM and then orally administered to the mice by 150 μL per animal at the same time once a day for 32 weeks. To the control group, PBS buffer was orally administered in the same manner. At the 16th week of Amuc_1409 administration, aged mice were allowed to hold the wire net connected to the muscle strength probe of the grip strength meter with all four paws, and then the tail was carefully pulled backward to measure the maximum grip strength at the moment at which the mice held onto the wire net. For muscle weight, after administration, the gastrocnemius (GC), soleus, and tibialis anterior (TA) muscles from both hind paws of the aged mice of each group were carefully separated to avoid damage, and each weight was measured. Muscle weight versus body weight was calculated by correcting with the body weight of the mouse. After the end of the experiment, in order to analyze the size of muscle fibers in each group, TA muscles were fixed in 10% formalin, and frozen section samples (8 μm) were prepared to prepare slides. The prepared slides were washed with PBS buffer solution, permeabilized with 0.5% Triton X-100, blocked, and treated with primary antibody (anti-laminin). After 24 hours, a fluorescent secondary antibody (Alexa Fluor 488 Goat anti-rabbit IgG) was applied, and the slides were finally treated with DAPI for nuclear staining. The immunostained slides were subjected to photographing of muscle tissue using a confocal microscope. Using image analysis software (ImageInside), the distribution of cross-sectional area of muscle fibers was calculated for each size from a minimum of 500 μm^2 or less to 3500 μm^2 or more. Meanwhile, in order to examine the efficacy of Amuc_1409 as well as its fragments, 82- to 83-week-old C57BL/6 male mice were used. PEP001 was dissolved in PBS buffer at a concentration of 2.4 μM and then orally administered to the mice by 150 μL per animal at the same time once a day for 10 weeks. To the control group, PBS buffer was orally administered in the same manner. At the 10th week of PEP001 administration, the maximum grip strength and muscle weight were calculated in the same manner as the measurement in Amuc_1409. At the end of the experiment, a part of the GC muscle excised was homogenized with Trizol to extract RNA. Reverse transcriptase was added to the obtained RNA and reacted to synthesize cDNA, and SYBR Green and primers were added to perform quantitative real-time PCR (RT-qPCR). The gene expression level of insulin-like growth factor (IGF-1) involved in protein synthesis in muscle cells was then quantified. In addition, in order to confirm the efficacy of the novel tetrapeptides and tripeptides PEP006 to PEP013, the improvement efficacy on geriatric sarcopenia was examined using naturally aged 76 to 78-week old female C57BL/6J mice. For an additional 12 weeks, the novel tetrapeptides PEP006, PEP007, PEP008, PEP009, and PEP010 or novel tripeptides PEP011, PEP012, and PEP013 were each dissolved in PBS buffer at a concentration of 0.2 μg/150 μL and then orally administered to the naturally aged mice by 150 μL per mouse at the same time until the end of the test. To the control group, PBS buffer was orally administered in the same manner. For all animals, general symptoms were observed immediately before administration at the start of administration, and grip strength was measured at the 11th week of administration in order to analyze muscle strength attenuation. […]

[3] = test system: C57BL/6J naturally aged mice; assay: Skin aging in naturally aged mice (skin H&E); type: in vivo, C57BL/6J mice; conditions: oral, vs PBS buffer group
Method: As an animal model of aging, 19- to 22-month old C57BL/6J naturally aged mice were used. Solid feed and water were sufficiently supplied until the day of the experiment, the environment was maintained at a temperature of 22° C. 2° C., humidity of 55%±15%, and a 12-hour light/dark cycle, and the mice were used for the experiment. Amuc_1409 and PEP001 were dissolved in PBS buffer at 10 μg/150 μL and 0.7 μg/150 μL, respectively, and then orally administered to the naturally aged mice by 150 μL per animal at the same time once a day for […], and novel tetrapeptides PEP006, PEP007, PEP008, PEP009, and PEP010 and novel tripeptides PEP011, PEP012, and PEP013 were each dissolved in PBS buffer at a concentration of 0.2 μg/150 μL and then orally administered to the naturally aged mice by 150 μL per animal at the same time once a day for 10 weeks. To the control group, PBS buffer was orally administered in the same manner.
On the day to be the 10th week of administration, a part of the tissue was excised from the back of the mouse and fixed in 10% formalin for 24 hours or more for histopathological analysis.
The fixed skin tissue was embedded in paraffin to prepare a 5 μm-thick section, and the skin section was H&E-stained with hematoxylin and eosin to analyze the skin epidermis thickness and the number of hair follicles.

Molecule | number of lobes of sprouted organoids [1] | grip strength [2] | GC (gastrocnemius) muscle weight [2] | TA (tibialis anterior) muscle weight [2] | soleus muscle weight [2] | number of hair follicles [3] | thickness of the skin epidermis [3] | muscle strength (grip strength) ([2]; 10th week of administration) | IGF-1 gene expression in GC muscle ([2]; 10th week of administration) | muscle strength (grip strength) ([2]; 16th week of administration) | muscle fibers with a size of 2,000 μm^2 or more in the TA muscle ([2]; laminin immunostaining) | number of muscle fibers with a cross-sectional size of 500 μm^2 or less in the TA muscle ([2]; laminin immunostaining) | average size of all muscle fibers [2]
RGAY (PEP007) | significantly increased | increased to a significant level | tended to increase | tended to increase | increased to a significant level | tended to increase | significantly increased | – | – | – | – | – | –
AIS [PEP013] | significantly increased | significantly increased | tended to increase | tended to increase | tended to increase | tended to increase | increased close to a significant level | – | – | – | – | – | –
IGAY (PEP008) | significantly increased | significantly increased | tended to increase | tended to increase | tended to increase | tended to increase | significantly increased | – | – | – | – | – | –
AGAY (PEP006) | significantly increased | significantly increased | tended to increase | tended to increase | tended to increase | tended to increase | significantly increased | – | – | – | – | – | –
SGAY (PEP009) | significantly increased | significantly increased | tended to increase | tended to increase | tended to increase | tended to increase | significantly increased | – | – | – | – | – | –
AQS [PEP011] | significantly increased | significantly increased | tended to increase | tended to increase | tended to increase | – | significantly increased | – | – | – | – | – | –
VGAY (PEP010) | significantly increased | significantly increased | tended to increase | tended to increase | tended to increase | tended to increase | significantly increased | – | – | – | – | – | –
AVSSIKGAY (PEP001) | – | – | significantly increased | increased | significantly increased | – | significantly increased | significantly increased | tended to increase | – | – | – | –
AGS [PEP012] | significantly increased | significantly increased | tended to increase | tended to increase | tended to increase | tended to increase | significantly increased | – | – | – | – | – | –
B1 | – | – | increased | increased | significantly increased | – | significantly increased | – | – | significantly increased | significantly increased | decreased | significantly increased
